These results are taken from paper PMC7914897, “Cytotoxic Potential of a-Azepano- and 3-Amino-3,4-SeCo-Triterpenoids” (International Journal of Molecular Sciences, 2021).

The test system of one test is A375 cells. The test is described as follows: Annexin V/PI flow cytometry. In kind it is cell-based, human. The conditions noted are these: A375, 48 h, 2 × EC50. How it is done:
Due to its good cytotoxic properties, compound 11 was subjected to flow cytometric measurements (Annexin V/PI assay).
Thereby, the BL1-A signal corresponds to the FITC signal for annexin V (x-axis) while PI is detected at BL3-A (y-axis). Thus, cells in R1 correspond to necrotic cells, those in R2 to late apoptosis, cells in R3 are viable cells, and cells in R4 have died from apoptosis.
Approximately 600,000 cells (A375) were seeded in cell culture flasks and were allowed to grow for 1 day. After removing of the medium, the substance loaded medium was added, and the flasks were incubated for 48 h. All cells were harvested, centrifuged (1200 rpm, 5 min), and washed twice (PBS (w/w)). Approximately 100,000 cells were washed with annexin V bounding buffer (BD Biosciences®) and treated with a propidium iodide solution (3 μL, 1 mg/mL) and annexin V (5 μL, BD Biosciences®) for 15 min at room temperature in the dark. After adding annexin V bounding buffer (400 μL) the suspension was submitted to a FACS measurement.
For orientation: Flow cytometry measures light scatter and fluorescence of single cells or particles in a stream.

The subject of a further test is OVCAR-3 (Ovarian cancer). Particulars: OVCAR-3, 1 dose 10 µM.

`C=C(C)[C@@H]1CC[C@]2(C(=O)N[C@H](CO)Cc3ccccc3)CC[C@]3(C)[C@H](CC[C@@H]4[C@@]5(C)CCCNC(C)(C)[C@@H]5CC[C@]43C)[C@@H]12` [Compound 11]: in the test with A375 cells, the “cells died by apoptosis (R4)” value is recorded as 44.3% and the “necrotic cells (R1)” value is listed as 1.1%. For the same compound, in the test on OVCAR-3 (Ovarian cancer), the “Growth % of the Most Sensitive Cell Lines” value is −95.88%.

In the case of `C=C(C)[C@@H]1CCC=C2CC[C@]3(C)[C@H](CC[C@@H]4[C@@]5(C)CCCNC(C)(C)[C@@H]5CC[C@]43C)[C@H]21` [Compound 8], in the test on OVCAR-3 (Ovarian cancer), the “Growth % of the Most Sensitive Cell Lines” value is reported as −93.30%.
